Test results reported in US10857107B2, “Cannabinoid-containing complex mixtures for the treatment of mast cell-associated or basophil-mediated inflammatory disorders” (priority 2017, dated 2020).
“Also recorded” adds a separate entry of the source. Where two headings read alike, the source gives them in different places.

Key:
Assay type in all cases: cell-based
[1] = tested on: mast cells (from a mast cell line, RBL2H3); experiment: FcεRI ligation-induced mast cell degranulation measured by histamine release (ELISA); conditions: nanomolar concentration; compared to PMA/Iomomycin (100%)
RBL2H3 cells [2] = experiment: FcεRI-induced degranulation with CBG/CBD, FAAH inhibitor or PDEI pre-incubation (beta-hexoaseaminidase assay); conditions: for Outcome (normalized cellular degranulation response): T60
Procedure: Experiments were conducted to test the hypothesis that CBG-mediated anti-inflammatory effects, i.e., suppression of degranulation, is by increase of intracellular cAMP and the increase of intracellular cAMP results from CBG's antagonizing effects on the interaction between AEA and CB1/2 receptors. To test this hypothesis, the ability of CBG to decrease FcεRI-induced degranulation was assessed. Mast cells were incubated with or without CBG before addition of FcεRI. An FAAH inhibitor was used as a control to increase the levels of AEA and thus saturate the CB1/2 receptors, resulting in decreased cAMP. PDEI was used as a control to directly increase the levels of intracellular cAMP. Cells were also incubated with CBD alone or CBG and CBD to assess the synergistic effects of CBD and CBG.
RBL2H3 cells were pre-incubated for 3 h at 37° C. at with (i) 10 μM FAAH inhibitor LY2183240/PF750 cocktail, (ii) 10 μM PDEI 3-isobutyl-1-methylxanthine (IBMX), or (iii) vehicle (Table 3). Vehicle or 300 nM CBG (30% of the CBG dose previously determined to cause maximal enhancement of the suppressive effect of CBD) was applied to Groups D-F and J-I, the first—one hour prior to FcεRI-induction—and the second—two hour prior to FcεRI-induction (T0, antigen), and remained throughout the course of the experiment. Vehicle was DMSO, methanol, or PBS. 10 μM CBD was additionally added to Groups D-I, 20 minutes prior to FcεRI-induction of degranulation. Cellular degranulation was measured using a beta-hexoaseaminidase assay at 1 h post-induction (T60). Replicates were done in triplicate and averaged. Degranulation of each of the groups was normalized to Row L. The outcome data presented in the column “Outcome” of Table 3 is the normalized cellular degranulation response of each averaged group. Group ABC was p<0.005 relative to Group LMN. Group GHI was p<0.005 relative to Group LMN. Row F had no significant difference relative to Row D. Row E was p<0.05 relative to Row D.

[3] = tested on: mast cells (from a mast cell line, RBL2H3); experiment: FcεRI ligation-induced mast cell degranulation measured by histamine release (ELISA); conditions: for inhibition at 10 µM: Rattus norvegicus; for anti-inflammatory effects on mast cell degranulation (in words): individual compound alone, 10 μM, histamine release; for increase of FcεRI ligation-induced histamine secretion: compound alone at 10 μM (FIG. 5)
Procedure: For the FcεRI assay, mast cells (from a mast cell line, RBL2H3) were plated in cluster plates at 5×10^4 cells/well. Monolayers were washed and incubated in 200 μl Tyrode's buffer. The mast cells were then primed with 1 μg/ml IgE-anti-DNP antibodies for 16 hours. The cells were then washed three times and a cannabinoid-containing complex mixture, prepared as above-described, was applied. The tested complex mixtures were applied in an amount calculated to expose the mast cells to 10 μM of cannabidiol and 10 μM of each minor cannabinoid or terpene component. Control for maximal FcεRI ligation-induced degranulation included no cannabinoid-containing complex mixture.
After 10 minutes, 250 ng/ml of DNP-BSA was applied to ligate FcεRI molecules on the mast cell surface.
Mast cell culture medium was collected 60 minutes after exposure to DNP-BSA with or without a tested cannabinoid-containing complex mixture. Degranulation of the mast cells was tested by measuring histamine release using a commercial ELISA kit (e.g., histamine ELISA kit available from ENZO Life Sciences, Inc., Rocky Mountain Diagnostics, Inc., etc.).
Mast cell degranulation for each tested complex mixture was measured based on the amount of histamine release and is presented as % histamine release compared to histamine release in response to PMA/Ionomycin (100%). Each complex mixture was tested in twenty-four (8×3) independent experiments and data from the twenty four independent experiments were averaged. The averaged values are presented as a bar for each complex mixture in FIG. 2. Standard deviations are also provided in the graph.
The % degranulation in response to each cannabinoid-containing complex mixture was used to calculate % inhibition of degranulation by subtracting the % degranulation from 100%.
Anti-inflammatory effects of (i) each major cannabinoid, (ii) each minor cannabinoid, and (iii) each selected terpene, were assessed based on their inhibition of FcεRI-induced mast cell degranulation by measuring histamine release as described above.
Their anti-inflammatory effects are presented as % reduction of histamine release in the presence of the tested compound compared to the histamine release in the presence of PMA/Ionomycin (0%). Standard deviations of the experimental data are also provided in the graphs.

Mast cells [4] = experiment: FcεRI-induced mast cell degranulation, beta-hexoseaminidase assay (dose response); conditions: for change of anti-inflammatory effects when 10 μM cannabigerol was added: various concentrations (1 nM to 50 μM) plus 10 μM cannabigerol; for IC50: read-out: IC50 of inhibitory effects on FcεRI-induced degranulation
Procedure: As provided in FIG. 12, anti-inflammatory effects of limonene, and cannabidiol (CBD), were assessed at 11 different concentrations (x-axis: 0, 1, 5, 10, 50, 100, 500, 1000, 5000, 10000, 50000 nM) in the presence (a line with triangles and a line with circles, respectively) or absence of 10 μM cannabigerol (CBG-a line with diamonds and a line with exes, respectively). In this experiment, anti-inflammatory effects of the mixtures were based on effects on mast cell degranulation, measured using a beta-hexoseaminidase assay.
Beta-hexoseaminidase assays: Mast cells were primed with anti-DNPA IgE, and then stimulated with DNP-BSA in the presence of absence of a tested composition as described in Example 2. Mast cell culture medium was collected 60 minutes after exposure to FcεRI and incubated for 45 minutes at 37° C. 25 μl of its supernatant was removed, clarified by microcentrifugation, and transferred to a 96 well plate containing 100 μl per well 1 mM p-N-acetyl glucosamine (Sigma) in 0.05 M citrate buffer pH 4.5. After incubating the mixture for 1 hour at 37° C., the reaction was quenched by addition of 100 μl per well 0.2 M glycine, pH 9.0. Beta-hexosaminidase levels were read as OD at 405 nm.

Mast cells [5] = experiment: Histamine release with cannabidivarin, with or without FcεRI ligation (time course)
Procedure: FIG. 7A provides data from Example 3 illustrating pro-inflammatory effects of cannabidivarin. […] The X-axis represents minutes after application of the FcεRI crosslinking agonist, and the y-axis represents the amount of histamine release (pg/10 million cells). FIG. 7B compares histamine release (pg/10 million cells) measured 10 minutes after exposure to the FcεRI crosslinking agonist (left) or to cannabidivarin without the FcεRI crosslinking agonist (right).
The x-axis represents minutes after application of BSA-DNP and y-axis represents the amount of histamine release (pg/10 million cells). Pro-inflammatory effects of cannabidivarin was even greater than effects of FcεRI ligation; histamine release in response to FcεRI ligation was about 220 pg/10 million cells after 10 minute exposure, while histamine release in response to cannabidivarin (without concurrent FcεRI ligation) was about 340 pg/10 million cells.

RBL2H3 cells [6] = experiment: Intracellular free calcium assay (Fluo-4); conditions: external calcium 1 mM
Procedure: FIG. 16 provides data from Example 6 illustrating the intracellular free calcium measurements in the presence of external calcium (1 mM) in RBL2H3 cells stimulated in the absence (control vehicle) or presence of 1, 10, or 50 μM CBG. Ionomycin was used as a positive control. Stimuli were added at 20 s.
RBL2H3 cells were washed and incubated with 0.2 μM Fluo-4 for 30 minutes at 37° C. in a standard modified Ringer's solution (145 mM NaCl, 2.8 mM KC1, 10 mM CsCl, +/−1-10 mM CaCl2, 2 mM MgCl2, 10 mM glucose, 10 mM HEPES, pH 7.4, 330 mOsm). Cells were transferred to 96-well plates at 50,000 cells/well and stimulated with 1, 10, or 50 μM CBG. 500 nM ionomycin was used as positive control to induce calcium response. Calcium signals were acquired using a Flexstation 3 (Molecular Devices, Sunnydale, USA) for 3 min. Data was analyzed using SoftMax® Pro 5 (Molecular Devices).

[7] = Antigen at T0, only the named substance(s), otherwise vehicle, 300 nM CBG, 10 μM CBD, 10 μM LY2183240/PF750 or IBMX, normalized to Row L
[8] = RBL-2H3, read-out: % inhibition of FcεRI-induced degranulation (reduction of histamine secretion)
[9] = Antigen at T0, cells pre-incubated 3 h with 10 μM FAAH inhibitor LY2183240/PF750 cocktail, 300 nM CBG, 10 μM CBD
[10] = Antigen at T0, cells pre-incubated 3 h with 10 μM PDEI IBMX, 300 nM CBG, 10 μM CBD

CCCCCCC(C)(C)c1ccc([C@@H]2C[C@H](O)CC[C@H]2CCCO)c(O)c1 [CP55940]
suppression of histamine release of mast cells [1]: about 30%

CC(C)Cn1c(=O)n(C)c(=O)c2[nH]cnc21 [IBMX, 3-isobutyl-1-methylxanthine]
Outcome (normalized cellular degranulation response) (RBL2H3 cells [2]; [7]): 0.34
reduction of FcεRI-induced degranulation (RBL2H3 cells [2]; alone, 10 μM, Row N): 3 fold
Outcome (normalized cellular degranulation response) (RBL2H3 cells [2]; no Antigen (vehicle at T0), 10 μM pre-incubation 3 h): 0.06

CCCCCc1cc(O)c2c(c1)OC(C)(CCC=C(C)C)C=C2 (stereo not drawn) [cannabichromene]
inhibition at 10 µM [3, 8]: ≤ 20%
anti-inflammatory effects on mast cell degranulation (in words) [3]: almost no anti-inflammatory effects

C=C(C)[C@@H]1CCC(C)=C[C@H]1c1c(O)cc(CCCCC)cc1O [cannabidiol]
change of anti-inflammatory effects when 10 μM cannabigerol was added (Mast cells [4]): significantly enhanced their anti-inflammatory effects
inhibition at 10 µM ([3]; RBL-2H3, read-out: % inhibition of FcεRI-induced degranulation (reduction of histamine secretion), individual compound alone at 10 μM): 23%
Outcome (normalized cellular degranulation response) (RBL2H3 cells [2]; [9]): 0.56
Outcome (normalized cellular degranulation response) (RBL2H3 cells [2]; [10]): 0.32
Outcome (normalized cellular degranulation response) (RBL2H3 cells [2]; [7]): 0.54

C=C(C)[C@@H]1CCC(C)=C[C@H]1c1c(O)cc(CCC)cc1O [cannabidivarin]
increase of FcεRI ligation-induced histamine secretion [3]: 26%
increase of FcεRI ligation-induced histamine secretion ([3]; listed as Cannabidivarin): more than 20%
histamine release (Mast cells [5]; in response to cannabidivarin without concurrent FcεRI ligation, 10 minute exposure): about 340 pg/10 million cells
effect of pretreatment on FcεRI ligation-induced histamine release (Mast cells [5]; pretreatment with 10 μM for 10 minutes before FcεRI ligation): significantly enhanced pro-inflammatory effects of FcεRI ligation; also recorded: further enhanced pro-inflammatory effects

CCCCCc1cc(O)c(C/C=C(\C)CCC=C(C)C)c(O)c1 [cannabigerol]
suppression of FcεRI ligation-induced degranulation (Mast cells [4]; alone, at the highest concentration tested (50 μM)): less than 10%
effect on intracellular calcium (RBL2H3 cells [6]; 50 μM): moderate increase in intracellular calcium
effect on intracellular calcium (RBL2H3 cells [6]; lower doses (1 and 10 μM)): did not significantly alter the intracellular calcium
inhibition at 10 µM [3, 8]: ≤ 20%
anti-inflammatory effects on mast cell degranulation (in words) [3]: almost no anti-inflammatory effects
anti-inflammatory effects on mast cell degranulation (in words) ([3]; listed as Cannabigerol): does not have significant effects on mast cell degranulation
Outcome (normalized cellular degranulation response) (RBL2H3 cells [2]; [9]): 0.92
Outcome (normalized cellular degranulation response) (RBL2H3 cells [2]; [10]): 0.28
Outcome (normalized cellular degranulation response) (RBL2H3 cells [2]; [7]): 0.98

CCCCCc1cc(O)c2c(c1)OC(C)(C)c1ccc(C)cc1-2 [cannabinol]
inhibition at 10 µM [3, 8]: ≤ 20%

C=C(C)[C@H]1CC=C(C)CC1 [limonene]
IC50 (Mast cells [4]; alone): ~480 nM
IC50 (Mast cells [4]; in combination with 10 μM cannabigerol (CBG)): ~100 nM
change of anti-inflammatory effects when 10 μM cannabigerol was added (Mast cells [4]): significantly enhanced their anti-inflammatory effects
% inhibition of FcεRI-induced degranulation (reduction of histamine secretion) ([3]; individual compound alone at 10 μM): 24%

C=CC(C)(O)CCC=C(C)C (stereo not drawn) [linalool]
anti-inflammatory effects on mast cell degranulation (in words) [3]: almost no anti-inflammatory effects

C=CC(C)(O)CCC=C(C)CCC=C(C)C (stereo not drawn) [nerolidol]
anti-inflammatory effects on mast cell degranulation (in words) [3]: almost no anti-inflammatory effects

C/C(=C\CO)CCC[C@H](C)CCC[C@H](C)CCCC(C)C [phytol]
anti-inflammatory effects on mast cell degranulation (in words) [3]: almost no anti-inflammatory effects

CC1=CCC2CC1C2(C)C (stereo not drawn) [pinene]
anti-inflammatory effects on mast cell degranulation (in words) [3]: almost no anti-inflammatory effects
